These results are taken from publication PMC4177084 (Journal of Thyroid Research, 2014).

The test system of one assay is FTC-236 cells. Briefly: Antiproliferation assay (WST-8). The class given is cell-based, human. On the technique in general: Tetrazolium dyes change colour on reduction, which living cells bring about.
A further assay relates to RO82-W-1 cells. Briefly: Antiproliferation assay (WST-8). The class given is cell-based, human. The conditions noted are these: for IC50: RO82-W-1 (DTC), antiproliferative, 3 days; for T/N: ratio of IC50 values of thyroid cancer cell lines to that of Nthy-ori 3-1 cells: RO82-W-1; for antiproliferative activity: RO82-W-1, in words.
The subject of assay [1] is FGFR1 and its downstream effectors (FRS2, MEK, ERK). In words: Western blot of FGFR1 signaling in bFGF-stimulated RO82-W-1 cells.
Another assay has as its system K1 cells. Briefly: Antiproliferation assay (WST-8). The class given is cell-based, human. The following applies: for IC50: K1 (DTC), antiproliferative, 3 days; for T/N: ratio of IC50 values of thyroid cancer cell lines to that of Nthy-ori 3-1 cells: K1.
For a further assay, the system named is FTC-133 cells. Briefly: Antiproliferation assay (WST-8). The class given is cell-based, human. The following applies: for T/N: ratio of IC50 values of thyroid cancer cell lines to that of Nthy-ori 3-1 cells: FTC-133; for IC50: FTC-133 (DTC), antiproliferative, 3 days.
For a further assay, the system named is RO82-W-1 xenograft. In words: Human thyroid cancer xenograft model, tumor growth. The class given is in vivo, nude mice. As for the experimental part:
Nude mice (CAnN.Cg-Foxn1nu/CrlCrlj, female, 5-6 weeks old) were obtained from Charles River Laboratories Japan (Kanagawa, Japan). Mice were maintained under specific pathogen-free conditions and housed in barrier facilities on a 12 h light/dark cycle, with food and water ad libitum. All procedures using laboratory animals were done in accordance with all applicable institutional and government regulatory guidelines and policies and were performed in an animal facility accredited by the Center for Accreditation of Laboratory Animal Care of the Japan Health Sciences Foundation.
Tumor cells were cultured in appropriate culture mediums. Cells were harvested with 0.05% or 0.25% (w/v) trypsin/EDTA and suspended with 50% (v/v) BD Matrigel (BD Biosciences, San Jose, CA) in the mixture of culture mediums at a density of 5–10 × 10^7 cells/mL. Then, 0.1-0.2 mL of the cell suspension was inoculated subcutaneously into the right flank region of each mouse. […] The tumor size was measured in two dimensions by using a caliper, and the volume was calculated by using the formula: tumor volume (mm^3) = 1/2 length (mm) × [width (mm)]^2. The change in tumor volume in the treated group relative to that in the control group was calculated according to the following formula: ΔT/C = (ΔT/ΔC) × 100%, where ΔT and ΔC are the change in tumor volume (i.e., growth) for the treated and vehicle control group, respectively. The percentage of tumor growth inhibition (%TGI) was calculated from the formula: [(1 − ΔT/ΔC) × 100].
Supplementary Fig. S7 Comparison of antitumor activity with antiangiogenesis activity in human differentiated thyroid cancer RO82-W-1 xenografts in nude mice.
Nude mice bearing RO82-W-1 xenografts […]
when tumor volumes reached about 200 mm3 (day 1). The tumor volume was measured on day 22. Each group consisted of 6 mice. Data are shown as means ± SD. * P < 0.05 compared with vehicle-treated mice.
(b) The percentage of tumor growth inhibition (%TGI). Each group consisted of 6 mice. Antitumor activity was calculated as %TGI at day 22. Data are shown as means ± SD. * P < 0.05 compared […]
analyze the relationship between antitumor activity (%TGI) and antiangiogenesis activity (percentage of […]
sorafenib-treated groups were plotted on the X- and Y-axes, respectively. %TGI and %MVI was determined as described in Materials and Methods. Analysis of covariance (ANCOVA) for %TGI was examined by using %MVI as a covariate (P<0.05)
In general terms: A xenograft is tissue or cells of one species grown in another, often human tumour cells in immunodeficient mice.

The next assay has as its system Nthy-ori 3-1 cells. In words: Antiproliferation assay (WST-8). It is filed as cell-based, human. The conditions noted are these: Nthy-ori 3-1 (normal thyroid), antiproliferative, 3 days.
The subject of a further assay is FTC-238 cells. In words: Antiproliferation assay (WST-8). The class given is cell-based, human. The following applies: for T/N: ratio of IC50 values of thyroid cancer cell lines to that of Nthy-ori 3-1 cells: FTC-238; for IC50: FTC-238 (DTC), antiproliferative, 3 days.
A further assay deals with T1, COT (Homo sapiens, UniProt P41279).
T1 construct: purchased Carna Biosciences, Inc. (Kobe, Japan)
T1 sequence (P41279 whole entry): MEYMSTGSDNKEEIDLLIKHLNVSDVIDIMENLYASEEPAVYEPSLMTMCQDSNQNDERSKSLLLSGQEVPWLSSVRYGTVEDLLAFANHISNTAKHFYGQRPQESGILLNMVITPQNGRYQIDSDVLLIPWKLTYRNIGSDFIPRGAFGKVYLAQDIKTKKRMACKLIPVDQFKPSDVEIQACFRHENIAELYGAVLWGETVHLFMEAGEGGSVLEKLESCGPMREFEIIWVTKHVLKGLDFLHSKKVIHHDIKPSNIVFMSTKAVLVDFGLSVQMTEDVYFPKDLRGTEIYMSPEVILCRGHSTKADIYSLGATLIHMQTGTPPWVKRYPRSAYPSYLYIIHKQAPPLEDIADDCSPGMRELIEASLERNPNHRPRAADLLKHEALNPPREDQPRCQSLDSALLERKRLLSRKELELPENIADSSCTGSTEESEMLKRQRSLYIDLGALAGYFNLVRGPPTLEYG
Briefly: Cell free kinase inhibition assay. The class given is biochemical. The protocol:
[…]. Briefly, each test compound was mixed with enzyme, substrate, ATP, and Mg under appropriate buffer conditions for the ELISA or MSA. […] IC50 values (the half maximal inhibitory concentration) were calculated from concentrations versus % inhibition curves.

The subject of the next assay is TT cells. In words: Antiproliferation assay (WST-8). The class given is cell-based. The conditions noted are these: Homo sapiens, TT, 240 h.
[2] abbreviates: FTC-236 (DTC), antiproliferative, 3 days, read-out: IC50.

Where two headings read alike, the source gives them in different places. A value given as a limit tells only on which side of the number the result lay.

As for `CCN(CC)CCCCNc1ncc2cc(-c3cc(OC)cc(OC)c3)c(NC(=O)NC(C)(C)C)nc2n1` [PD173074], the “T/N: ratio of IC50 values of thyroid cancer cell lines to that of Nthy-ori 3-1 cells” value (shortened to “T/N: ratio”) with FTC-236 cells (FTC-236) worked out at 0.93; in the assay with RO82-W-1 cells, 0.14; in the assay on K1 cells, 2.39; in the assay on FTC-133 cells, 2.11; with FTC-238 cells, 2.04. In addition, the IC50 (usually the midpoint of a concentration-inhibition curve) with FTC-236 cells (Homo sapiens, 72 h, FTC-236 (DTC), antiproliferative, 3 days, read-out: IC50) turned out to be 4.3 µM; with RO82-W-1 cells (Homo sapiens, 72 h), 0.63 µM; in the assay on K1 cells (Homo sapiens, 72 h), 11 µM; in the assay with FTC-133 cells (Homo sapiens, 72 h), 9.7 µM; in the assay on Nthy-ori 3-1 cells (Homo sapiens, 72 h) it was 4.6 µM; in the assay on FTC-238 cells (Homo sapiens, 72 h) it was 9.4 µM. In addition, in assay [1] (1 h treatment, then bFGF 20 ng/mL and heparin 10 min), the “phosphorylation of FGFR1, FRS2, MEK, and ERK” value was “inhibited the bFGF-induced phosphorylation of FGFR1, FRS2, MEK, and ERK in a concentration-dependent manner”. The antitumor activity result in the assay with RO82-W-1 xenograft (RO82-W-1 xenograft, daily oral administration for 14 days) is reported as “significant antitumor activity”.

On to `Cc1ccc(NC(=O)c2ccc(CN3CCN(C)CC3)cc2)cc1Nc1nccc(-c2cccnc2)n1` [Glivec, imatinib], for which, in the assay on RO82-W-1 cells, the antiproliferative activity entry is on record as “no antiproliferative activity”.

For the molecule `COc1cc(OC)cc(-c2cc3cnc(N)nc3nc2NC(=O)NC(C)(C)C)c1` [PD166866], the IC50 was more than 30 µM with FTC-236 cells (setting [2]); 1.9 µM in the assay on RO82-W-1 cells; 29 µM in the assay on K1 cells; 23 µM in the assay with FTC-133 cells; 14 µM in the assay with Nthy-ori 3-1 cells; 21 µM in the assay with FTC-238 cells. Besides, the “T/N: ratio” value is listed as 0.14 in the assay on RO82-W-1 cells, 2.07 with K1 cells, 1.64 in the assay with FTC-133 cells and 1.5 in the assay with FTC-238 cells.

With `COc1ccc(Oc2ccnc3cc(OC)c(OC)cc23)cc1OC` [Ki6783], the concentration for half-maximal inhibition (IC50) was more than 30 µM in the assay on FTC-236 cells (setting [2]); 2.5 µM in the assay with RO82-W-1 cells; 9.2 µM in the assay with K1 cells; 8 µM in the assay with FTC-133 cells; 1.7 µM with Nthy-ori 3-1 cells; 2 µM in the assay on FTC-238 cells. The “T/N: ratio” value is recorded as 1.5 in the assay with RO82-W-1 cells, 5.4 in the assay with K1 cells, 4.7 in the assay with FTC-133 cells and 1.2 in the assay on FTC-238 cells. In addition, in the assay on RO82-W-1 cells, the antiproliferative activity entry is “no antiproliferative activity”.

Take `CNC(=O)c1cc(Oc2ccc(NC(=O)Nc3ccc(Cl)c(C(F)(F)F)c3)cc2)ccn1` [Sorafenib]: the IC50 with FTC-236 cells (Homo sapiens, 72 h) was 7.7 µM; in the assay on RO82-W-1 cells (Homo sapiens, 72 h), 4.2 µM; in the assay with K1 cells (Homo sapiens, 72 h), 5.2 µM; in the assay on FTC-133 cells (Homo sapiens, 72 h), 5.5 µM; against COT it was more than 10 µM; with TT cells, 0.26 µM. The molecule further showed an IC50 in the assay with FTC-238 cells (Homo sapiens, 72 h) of 7.3 µM. In [1] (10 μM, bFGF-stimulated), the “phosphorylation of MEK” value is “weakly inhibited”. Besides, the “phosphorylation of FGFR1 or its other downstream effectors” value in assay [1] (up to 10 μM, bFGF-stimulated) was “did not clearly inhibit”. For the same molecule, in the assay with RO82-W-1 xenograft (RO82-W-1 xenografts, oral once daily 21 days, doses between 30 and 300 mg/kg), the tumor growth entry is on record as “inhibited tumor growth”.
